Assay results as given in patent US20170252433A1, “PSMA-RELATED THERAPIES” (Memorial Sloan Kettering Cancer Center, priority 2014, published 2017).

Tests used:
[1] = system: PSMA-expressing prostate cancer cells (LNCaP-wt, PC3-hPSMA) and PC3-wt; assay: Cytoplasmic calcium quantification (Fluo4 assay); type: cell-based, human
Description: Cells were seeded at a density of 10,000 per well on a 96-well plate and grown overnight. Loading of the calcium-sensing dye Fluo4 (Life Technologies, Calrsbad, Calif.) was performed according to the manufacturer's instructions. Where indicated the cells were treated with thapsigargin (1 μM, Tocris, Minneapolis, Minn.), L-Quisqualic acid (110 μM, Tocris), 3,5-DHPG (0.67 mM, Tocris), L-AP3 (125 μM, Tocris), U73122 (50 μM, Tocris), and 2-PMPA (100 μM, Tocris) immediately before measuring calcium levels, with a SpectraMax M5 plate reader (Molecular Devices, Sunnyvale, Calif.).
The effect of PSMA expression on calcium homeostasis in prostate cancer cell lines was evaluated using the fluorimetric Fluo4 assay kit (Invitrogen), according to the supplier's instructions. The plate was excited at 490 nm, and fluorescence emission was monitored at 520 nm with the SpectraMax M5 plate reader (Molecular Devices). […] To examine calcium accumulation in the cytoplasm, the cells were treated with thapsigargin (1 μM, Tocris) immediately prior to taking measurements with the plate reader. […] Furthermore, we investigated whether PSMA facilitates calcium signaling via the mGluR Group I receptors through its enzymatic activity. The cells were treated with either L-Quisqualic acid (110 μM; mGluR I agonist, Tocris), L-AP3 (125 μM; mGluR I antagonist, Tocris) or a PSMA inhibitor (100 μM, Tocris), immediately prior to taking calcium measurements.

[2] = system: LNCaP-wt cells; assay: Androgen receptor pathway output: secreted PSA (DELFIA PSA assay); type: cell-based, human; settings: 5 μM, 48 h
Description: (§1) Gene expression array was performed after TRIzol-based RNA extraction on an U133A 2.0 gene array (Affymetrix, Santa Clara, Calif.). The output of the androgen receptor (AR) pathway was assessed by measuring the levels of prostate specific antigen (PSA). LNCaP cells that have a functional AR pathway were obtained from ATCC (Manassas, Va.) and grown to confluence. Then they were treated for 48 h with 2-PMPA (5 μM) for 48 h, followed by screening of the culture medium for secreted PSA with the DELFIA PSA assay (Perkin Elmer, Waltham, Mass.). The levels of nitric oxide attributed to nitric oxide synthase's activity and the concentration of total secreted prostaglandins were quantified with the corresponding kits purchased from Cayman Chemicals (Ann Arbor, Mich.). Alterations in energy production due to signaling changes were determined through quantification of the intracellular NAD+ and ATP lelels, using the NAD assay from Cayman Chemicals (Ann Arbor, Mich.) and the StayBrite ATP kit from Biovision (Milpitas, Calif.).
Since PSMA regulates Akt phosphorylation, it was investigated whether inhibition of PSMA and subsequent downregulation of Akt activity affected the status of the androgen receptor (AR) pathway. […]

[3] = system: nitric oxide synthase; assay: Nitric oxide synthase activity (total nitrate levels); type: cell-based, human; settings: 5 μM, 48 h
Description: as §1
Furthermore, it was examined whether PSMA inhibition affects the activity of nitric oxide synthase and the levels of prostaglandins, since both Akt and Ca+2 regulate these processes. […]

[4] = system: LNCaP and PC3-PSMA cells; assay: Total secreted prostaglandins; type: cell-based, human; settings: 5 μM, 48 h, FIG. 5c-d
Description: LNCaP cells that have a functional AR pathway were obtained from ATCC (Manassas, Va.) and grown to confluence. […] The levels of nitric oxide attributed to nitric oxide synthase's activity and the concentration of total secreted prostaglandins were quantified with the corresponding kits purchased from Cayman Chemicals (Ann Arbor, Mich.).
Furthermore, it was examined whether PSMA inhibition affects the activity of nitric oxide synthase and the levels of prostaglandins, since both Akt and Ca+2 regulate these processes. The activity of nitric oxide synthase was assessed by quantifying the sample's total nitrate levels with a kit from Cayman Chemicals, whereas the levels of total prostaglandins secreted in the cell's medium were measured with the total prostaglandin kit from Cayman Chemicals. Inhibition of PSMA was performed with a PSMA inhibitor (5 μM) at 48 h at 37° C., 5% CO2.

[5] = system: LNCaP-wt xenografts; assay: Photoacoustic imaging of tumor vascularization and oxygenation; type: in vivo, male athymic, nude mice; settings: 0.4 mM, 100 μL retro-orbital injection daily
Description: Male, athymic, nude mice (Harlan Laboratories, Indianapolis, Ind.) were implanted with LNCaP xenografts (3 million cells in 100 μL Matrigel). Immediately post xengraft implantation, the mice were treated daily iv with 2-PMPA (0.4 mM, 100 μL retro-orbital injection). Tumor vascularization and oxygenation was assessed 15 days after treatment commencements, using the Vevo LAZR small-animal photoacoustic imaging platform (Visualsonics, Toronto, ON, Canada).
The tumors used in the study had roughly the same size. […] (FIG. 6 a-b). […] (FIG. 6c)

[6] = system: PSMA-expressing (LNCaP-PSMA+ve) and PSMA-negative (LNCaP-PSMA-ve) cells; assay: Cell viability with ROS-generating drug Elesclomol (Alamar Blue); type: cell-based, human; settings: 2-PMPA 250 nM, 48 h; Elesclomol 250 nM; FIG. 8 C and D
Description: Cell viability of (A) PSMA-expressing (LNCaP-PSMA+ve) and (B) PSMA-negative cells (LNCaP-PSMA-ve where PSMA expression was knocked down with shRNA) was determined via the fluorescence-based Alamar Blue method (λex=565 nm and λem=585 nm). Cell viability was assessed 48 h after drug administration with either vehicle (DMSO) or the ROS-generating drug Elesclomol (250 nM, Selleck Chemicals). […] The cells were treated for 48 h, and cell viability was determined with the Alamar Blue method.

O=C(O)CCC(CP(=O)(O)O)C(=O)O (stereo not drawn) [2-PMPA]
cytoplasmic calcium levels ([1]; PSMA inhibition compared with Phospholipase C inhibitor U73122 50 μM, FIG. 1d): reduction in calcium levels
cytoplasmic calcium levels ([1]; PSMA-expressing cells, PSMA inhibitor 100 μM, L-AP3 125 μM, FIG. 1c): lowered calcium levels
PSA mRNA levels [2]: did not affect PSA's mRNA levels
PSA levels in culturing medium ([2]; FIG. 5a): increased PSA levels
nitrate concentration ([3]; PC3-wt cells that do not express PSMA): did not affect nitrate concentration
nitric oxide synthase activity (nitrate levels) ([3]; PSMA-expressing cells, FIG. 5c-d): decreased nitric oxide synthase activity
total levels of secreted prostaglandins [4]: decreased
tumor total hemoglobin levels ([5]; FIG. 6a-b): lower total hemoglobin levels
tumor consumption of oxygen ([5]; FIG. 6c): lower consumption of oxygen
tumor oxygenation ([5]; versus saline): lower tumor oxygenation
tumor vascularization ([5]; versus saline, FIG. 6a-b): lower tumor vascularization
resistance to ROS-generating drug (cell viability) [6]: abrogates drug resistance and renders the cells susceptible to cell death
